In patent US20020198142A1, “Cyclopeptide derivatives” (Merck Patent GmbH, priority 1997, published 2002):

Tested on: mouse MC3T3 H1 osteoblast cultures
Assay: Cell adhesion test: adhesion of osteoblast cultures in vitro to RGD peptide-coated material surfaces
Format: cell-based
Details: 50,000 cells/cm^2 inoculated, serum-free medium, 37°/95% atmospheric humidity, one hour, adhered cells/inoculated cells x 100
Experimental: Example of Cell Adhesion Test
The adhesion of mouse MC3T3 H1 osteoblast cultures in vitro to RGD peptide-coated material surfaces was investigated. In the course of this, 50,000 cells/cm^2 were inoculated and, after incubation in serum-free medium at 37°/95% atmospheric humidity for one hour, the proportion of adherent cells was determined.
Cell adhesion rate [%]=adhered cells/inoculated cells x 100

| Substance | cell adhesion rate [%] |
| --- | --- |
| cyclo-(Arg-Gly-Asp-D-Phe-Lys(N^ε—(CO—CH2—O—CH2CH2—O—CH2CH2—NH)2—CO—(CH2)5—NH—CO—CH═CH2)) | 110.5% |
| cyclo-(Arg-Gly-Asp-D-Phe-Lys(N^ε—CO—(CH2)5—NH—CO—(CH2)5—NH—CO—CH═CH2)) | 92.4% |
| cyclo-(Arg-Gly-Asp-D-Phe-Lys(N^ε—CO—(CH2)5—NH—CO—CH═CH2)) | 11.3% |
| cyclo-(Arg-Gly-Asp-D-Phe-Lys(N^ε—CO—CH2CH2CO—NH—CH2CH2—SH)) | 86.2% |
| cyclo-(Arg-Gly-Asp-D-Phe-Lys(N^ε—CO—CH2—O—CH2CH2—O—CH2CH2—NH—CO—(CH2)5—NH—CO—CH═CH2)) | 109.0% |
